Measurements taken from US4504580A, “Antibiotics produced by fermentation of a novel strain of Streptomyces hygroscopicus” (Bristol-Myers Company, priority 1983, dated 1985).
≈ marks a conversion by molar mass, not a printed value. Entries after “also recorded” stand apart in the source; their conditions may differ. Read-outs that look alike come from different tables or passages of the source.

What was measured:
[1] = tested on: Klebsiella pneumoniae D-11; test: Experimental systemic infection in mice, K. pneumoniae D-11; format: in vivo; conditions: Klebsiella pneumoniae, D11, 96 h, im, single treatment, 4 days, read-out: PD50
Experimental: (§1) The in vivo activity of Bu-2659A was assessed by experimental systemic infection in mice. The pathogenic bacteria used in the in vivo tests were E. coli Juhl, K. pneumoniae D-11, P. mirabilis A9906, S. aureus Smith and S. pyogenes A20201. Mice were challenged intraperitoneally with approximately 100×LD50 dose of the pathogens in a 5% suspension of hog gastric mucin (American Laboratories, Omaha, Neb.). A single intramuscular treatment with the antibiotic was given immediately after the bacterial challenge. […] Neomycin was comparatively tested as a reference compound. […] In terms of PD50 value Bu-2659A was about one-half as active as neomycin against infections with S. aureus and S. pyogenes.

[2] = tested on: resistant strains which produce APH(3') or AAC(3); test: Susceptibility of aminoglycoside resistant organisms (MIC), overall, Table 9; format: cell-based; conditions: several resistant strains which produce APH(3') or AAC(3)
Experimental: (§2) The minimum inhibitory concentrations (MIC) of Bu-2659A, B, C, D and E were determined for a variety of gram-positive and gram-negative bacteria by the serial two-fold agar dilution method using the Steer's multi-inoculating apparatus. The inoculum was standardized as a 10^4 dilution of an overnight culture of the test organisms in Heart Infusion Broth (Difco). […] Reference antibiotics utilized in these tests included commercially available neomycin as well as its components, neomycins B and C [as used herein, the term "neomycin" means the commercial product containing neomycins B and C at an approximate ratio of 7:3], paromomycin [the commercial product containing >90% of paromomycin I and <10% of paromomycin II] and ribostamycin.

[3] = tested on: Staphylococcus aureus D136; test: MIC by serial two-fold agar dilution, S. aureus D136; format: cell-based; conditions: Staphylococcus aureus, D136; Table 7; Mueller-Hinton agar; read-out: MIC
Summary of the method: (§3)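 Inocula, 10^4-diluted overnight broth cultures, are applied via Steer's multi-inoculating device to agar containing serially halved compound concentrations.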

[4] = tested on: Haemophilus influenzae A9729; test: MIC by serial two-fold agar dilution, H. influenzae A9729; format: cell-based; conditions: Haemophilus influenzae, A9729; Table 8; GC medium; read-out: MIC
Experimental: as §2

[5] = tested on: Micrococcus flavus D12; test: MIC by serial two-fold agar dilution, M. flavus D12; format: cell-based; conditions: Micrococcus flavus, D12; Table 7; Mueller-Hinton agar; read-out: MIC
Summary of the method: as §3

[6] = tested on: Pseudomonas aeruginosa A9930; test: MIC by serial two-fold agar dilution, P. aeruginosa A9930; format: cell-based; conditions: Pseudomonas aeruginosa, A9930; Table 7; Mueller-Hinton agar; read-out: MIC
Summary of the method: as §3

[7] = tested on: Enterobacter cloacae A20364; test: MIC, aminoglycoside-resistant E. cloacae A20364; format: cell-based; conditions: Enterobacter cloacae, A20364; Table 9; inactivating enzyme APH(3')-I; Mueller-Hinton agar; read-out: MIC
Experimental: as §2

[8] = tested on: Staphylococcus aureus Smith; test: Experimental systemic infection in mice, S. aureus Smith; format: in vivo; conditions: Staphylococcus aureus, 96 h, im, single treatment, 4 days, read-out: PD50
Experimental: as §1

[9] = tested on: Klebsiella pneumoniae D11; test: MIC by serial two-fold agar dilution, K. pneumoniae D11; format: cell-based; conditions: Klebsiella pneumoniae, D11; Table 7; Mueller-Hinton agar; read-out: MIC
Summary of the method: as §3

[10] = tested on: Streptococcus pyogenes A20201; test: Experimental systemic infection in mice, S. pyogenes A20201; format: in vivo; conditions: Streptococcus pyogenes, A20201, 96 h, im, single treatment, 4 days, read-out: PD50
Experimental: as §1

[11] = tested on: Proteus rettgeri A15167; test: MIC by serial two-fold agar dilution, P. rettgeri A15167; format: cell-based; conditions: Providencia rettgeri, A15167; Table 7; Mueller-Hinton agar; read-out: MIC
Summary of the method: as §3

[12] = tested on: Escherichia coli ML 1630; test: MIC, aminoglycoside-resistant E. coli ML 1630; format: cell-based; conditions: Escherichia coli, ML1630; Table 9; inactivating enzyme APH(3')-I; Mueller-Hinton agar; read-out: MIC
Experimental: as §2

[13] = tested on: Escherichia coli A20107; test: MIC, aminoglycoside-resistant E. coli A20107; format: cell-based; conditions: Escherichia coli, A20107; Table 9; inactivating enzyme APH(3')-II; Mueller-Hinton agar; read-out: MIC
Experimental: as §2

[14] = tested on: Proteus morganii A9553; test: MIC by serial two-fold agar dilution, P. morganii A9553; format: cell-based; conditions: Morganella morganii, A9553; Table 7; Mueller-Hinton agar; read-out: MIC
Summary of the method: as §3

[15] = tested on: Proteus vulgaris A9436; test: MIC by serial two-fold agar dilution, P. vulgaris A9436; format: cell-based; conditions: Proteus vulgaris, A9436; Table 7; Mueller-Hinton agar; read-out: MIC
Summary of the method: as §3

[16] = tested on: Proteus mirabilis A9906; test: Experimental systemic infection in mice, P. mirabilis A9906; format: in vivo; conditions: Proteus mirabilis, A9906, 96 h, im, single treatment, 4 days, read-out: PD50
Experimental: as §1

[17] = tested on: Neisseria gonorrhoeae A20143; test: MIC by serial two-fold agar dilution, N. gonorrhoeae A20143; format: cell-based; conditions: Neisseria gonorrhoeae, A20143; Table 8; GC medium; read-out: MIC
Experimental: as §2

[18] = tested on: Escherichia coli JR35/C600; test: MIC, aminoglycoside-resistant E. coli JR35/C600; format: cell-based; conditions: Escherichia coli, JR35/C600
Experimental: as §2

[19] = tested on: Streptococcus pyogenes A20201; test: MIC by serial two-fold agar dilution, S. pyogenes A20201; format: cell-based; conditions: Streptococcus pyogenes, A20201; Table 8; GC medium; read-out: MIC
Experimental: as §2

[20] = tested on: species of Streptococcus and Mycobacterium; test: Antibacterial activity (MIC), overall, Streptococcus and Mycobacterium, Table 8; format: cell-based
Experimental: as §2

[21] = Acute toxicity in mice; format: in vivo; conditions: for LD50: mouse, in vivo, mice, read-out: LD50
Experimental: The acute toxicity of Bu-2659A was determined in mice by intravenous, intraperitoneal and subcutaneous routes. Neomycin also was tested for comparison purposes. […] The toxicity of Bu-2659A was approximately 1/3 that of neomycin in terms of LD50 values, thus presenting a potential clinical advantage for Bu-2659A.

[22] = tested on: Escherichia coli JR66/W677; test: MIC, aminoglycoside-resistant E. coli JR66/W677; format: cell-based; conditions: Escherichia coli, JR66/W677
Experimental: as §2

[23] = tested on: Mycobacterium smegmatis 607; test: MIC by serial two-fold agar dilution, M. smegmatis 607; format: cell-based; conditions: Mycolicibacterium smegmatis, 607; Table 8; No. 1001 medium; read-out: MIC
Experimental: as §2

[24] = tested on: gram-positive and gram-negative bacteria; test: In vitro antibacterial spectra (MIC), overall comparison, Table 7; format: cell-based; conditions: Table 7 organisms
Experimental: as §2

[25] = tested on: Mycobacterium ranae; test: MIC by serial two-fold agar dilution, M. ranae; format: cell-based; conditions: Mycobacterium; Table 8; No. 1001 medium; read-out: MIC
Experimental: as §2

[26] = tested on: Mycobacterium phlei; test: MIC by serial two-fold agar dilution, M. phlei; format: cell-based; conditions: Mycolicibacterium phlei; Table 8; No. 1001 medium; read-out: MIC
Experimental: as §2

[27] = tested on: Escherichia coli NR79/W677; test: MIC, aminoglycoside-resistant E. coli NR79/W677; format: cell-based; conditions: Escherichia coli, NR79/W677
Experimental: as §2

SMILES: NC[C@@H]1O[C@H](O[C@H]2[C@@H](O)[C@H](O[C@@H]3[C@@H](O)[C@H](O)C[C@H](N)[C@H]3O[C@H]3O[C@H](CN)[C@@H](O)[C@H](O)[C@H]3N)O[C@@H]2CO)[C@H](N)[C@@H](O)[C@@H]1O [Bu-2659A, 1-deamino-1-hydroxyneomycin B]
- ED50 [1]: 1.1 mg/kg
- activity against aminoglycoside-resistant strains, in words [2]: more active than neomycin, paromomycin and ribostamycin
- MIC [3]: 0.8 µg/mL (≈ 1.3 µM)
- MIC [4]: 50 µg/mL (≈ 81.2 µM)
- MIC [5]: 6.3 µg/mL (≈ 10.2 µM)
- MIC [6]: 1.6 µg/mL (≈ 2.6 µM)
- MIC [7]: 50 µg/mL (≈ 81.2 µM)
- ED50 [8]: 0.63 mg/kg
- MIC [9]: 0.2 µg/mL (≈ 0.325 µM)
- ED50 [10]: 50 mg/kg
- MIC [11]: 0.8 µg/mL (≈ 1.3 µM)
- MIC [12]: > 100 µg/mL
- MIC [13]: 25 µg/mL (≈ 40.6 µM)
- MIC [14]: 1.6 µg/mL (≈ 2.6 µM)
- MIC [15]: 0.4 µg/mL (≈ 0.65 µM)
- ED50 [16]: 2.5 mg/kg
- MIC [17]: 50 µg/mL (≈ 81.2 µM)
- MIC [18]: 25 µg/mL (≈ 40.6 µM)
- MIC [19]: 25 µg/mL (≈ 40.6 µM)
- activity against Streptococcus and Mycobacterium, in words [20]: equivalent activity
- acute toxicity compared with neomycin, in words ([21]; all routes of administration): significantly less toxic than neomycin
- toxicity relative to neomycin in terms of LD50 values ([21]; intravenous, intraperitoneal, subcutaneous): approximately 1/3
- LD50 ([21]; ip, intraperitoneal): 460 mg/kg
- LD50 ([21]; sc, subcutaneous): 720 mg/kg
- LD50 ([21]; intravenous): 110 mg/kg
- MIC [22]: > 100 µg/mL
- MIC [23]: 0.4 µg/mL (≈ 0.65 µM)
- in vitro antibacterial activity, in words [24]: highest activity among the five Bu-2659 components; also recorded: comparable to that of neomycin; also recorded: substantially the same level of antibacterial activity as neomycin B
- MIC [25]: 0.4 µg/mL (≈ 0.65 µM)
- MIC [26]: 0.1 µg/mL (≈ 0.162 µM)
- MIC [27]: 50 µg/mL (≈ 81.2 µM)
